Reference: patent US20260232658A1, “AZETIDINYL BENZOXAZOLE COMPOUNDS AND THEIR USE AS MER AND AXL INHIBITORS” (DONG-A ST CO., LTD., priority 2022, published 2026)

Experiments:
TYRO3 (455-end) = biological target: T1, TYRO3 (455-end) (Homo sapiens, UniProt Q06418); test: HTRF kinase activity biochemical assay, TYRO3; settings: recombinant kinase, 10 uM ATP, 30 minutes pre-incubation; read-out: HTRF TYRO IC50;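 also: biotinylated tyrosine kinase substrate phosphorylation detected via streptavidin-XL665 and Eu3+-cryptate anti-phospho antibody time-resolved fluorescence, read after 1 h detection at room temperature, 384-well format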
T1 construct: TYRO3 (455-end); purchased SignalChem, Canada
T1 sequence (Q06418 455-890 limits assumed): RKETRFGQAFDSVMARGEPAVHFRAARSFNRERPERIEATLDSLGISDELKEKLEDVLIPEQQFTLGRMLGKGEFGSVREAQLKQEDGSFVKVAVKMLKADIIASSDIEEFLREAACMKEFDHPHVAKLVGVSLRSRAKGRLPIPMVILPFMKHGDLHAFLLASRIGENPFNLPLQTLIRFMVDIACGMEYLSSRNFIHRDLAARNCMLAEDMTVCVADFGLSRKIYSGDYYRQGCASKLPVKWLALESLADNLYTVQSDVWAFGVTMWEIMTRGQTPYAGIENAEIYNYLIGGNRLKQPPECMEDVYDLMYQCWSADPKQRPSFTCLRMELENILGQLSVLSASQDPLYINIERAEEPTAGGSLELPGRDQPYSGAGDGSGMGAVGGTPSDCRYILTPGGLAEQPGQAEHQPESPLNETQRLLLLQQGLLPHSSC

human AXL (473-end) = biological target: T2, human AXL (473-end) (Homo sapiens, UniProt P30530); test: HTRF kinase activity biochemical assay, AXL; settings: recombinant kinase, 10 uM ATP, 30 minutes pre-incubation; read-out: HTRF AXL IC50;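 also: phosphorylation of a biotinylated tyrosine kinase substrate detected via Eu3+-cryptate anti-TK antibody and streptavidin-XL665, fluorescence read after a 1 h incubation at room temperature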
T2 construct: human AXL (473-end); purchased SignalChem, Canada
T2 sequence (P30530 473-894 limits assumed): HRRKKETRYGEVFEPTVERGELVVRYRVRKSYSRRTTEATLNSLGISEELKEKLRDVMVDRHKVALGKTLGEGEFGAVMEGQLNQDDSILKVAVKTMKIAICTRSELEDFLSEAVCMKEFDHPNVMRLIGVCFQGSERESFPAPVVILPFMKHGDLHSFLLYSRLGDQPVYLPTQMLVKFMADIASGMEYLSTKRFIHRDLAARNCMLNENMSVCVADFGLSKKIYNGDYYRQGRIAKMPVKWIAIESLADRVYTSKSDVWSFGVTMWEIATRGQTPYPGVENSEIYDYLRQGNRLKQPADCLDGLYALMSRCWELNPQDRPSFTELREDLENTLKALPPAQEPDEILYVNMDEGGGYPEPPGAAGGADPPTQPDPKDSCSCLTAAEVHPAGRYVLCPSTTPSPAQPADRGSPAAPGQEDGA

human MER (528-end) = biological target: T3, human MER (528-end) (Homo sapiens, UniProt Q12866); test: HTRF kinase activity biochemical assay, MER; settings: recombinant kinase, 10 uM ATP, 30 minutes pre-incubation; read-out: HTRF MERTK IC50;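 also: phosphorylation of a biotin-tagged tyrosine kinase substrate detected by Eu3+-cryptate antibody and streptavidin-XL665 time-resolved fluorescence, read after 1 h at room temperature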
T3 construct: human MER (528-end); purchased Carnabio, Japan
T3 sequence (Q12866 528-999 limits assumed): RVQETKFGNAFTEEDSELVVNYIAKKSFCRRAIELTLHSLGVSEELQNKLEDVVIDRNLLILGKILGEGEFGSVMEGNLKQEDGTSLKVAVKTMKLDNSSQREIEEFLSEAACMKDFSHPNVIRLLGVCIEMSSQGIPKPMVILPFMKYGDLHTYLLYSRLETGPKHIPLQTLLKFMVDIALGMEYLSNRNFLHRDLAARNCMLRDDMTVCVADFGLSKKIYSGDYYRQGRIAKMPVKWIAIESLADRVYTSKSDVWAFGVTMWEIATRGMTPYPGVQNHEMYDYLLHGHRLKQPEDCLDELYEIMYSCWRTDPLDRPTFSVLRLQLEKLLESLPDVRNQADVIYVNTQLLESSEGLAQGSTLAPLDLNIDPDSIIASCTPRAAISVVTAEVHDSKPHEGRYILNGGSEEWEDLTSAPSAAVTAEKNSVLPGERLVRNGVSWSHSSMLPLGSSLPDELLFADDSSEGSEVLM

| IC50 (TYRO3 (455-end)) | IC50 (human AXL (473-end)) | IC50 (human MER (528-end)) | Structure (SMILES) |
| --- | --- | --- | --- |
| 120 nM | 3 nM | 2 nM | COC(=O)c1ccc2nc(N3CC(c4cnc(Nc5cnn(C)c5)c(C(N)=O)n4)C3)oc2c1 [Example 13, methyl 2-(3-{6-carbamoyl-5-[(1-methyl-1H-pyrazol-4-yl)amino]pyrazin-2-yl}azetidin-1-yl)-1,3-benzoxazole-6-carboxylate] |
| > 10000 nM | 3 nM | 1 nM | NC(=O)c1nc(C2CN(c3nc4ccc(F)cc4o3)C2)cnc1Nc1cn[nH]c1 [Example 36C, 6-[1-(6-fluoro-1,3-benzoxazol-2-yl)azetidin-3-yl]-3-[(1H-pyrazol-4-yl)amino]pyrazine-2-carboxamide] |
| 280 nM | 7 nM | 2 nM | Cn1cc(Nc2ncc(C3CN(c4nc5ccc(-c6ccccc6)cc5o4)C3)nc2C(N)=O)cn1 [Example 8, 3-[(1-methyl-1H-pyrazol-4-yl)amino]-6-[1-(6-phenyl-1,3-benzoxazol-2-yl)azetidin-3-yl]pyrazine-2-carboxamide] |
| 620 nM | 9 nM | 3 nM | Cn1cc(Nc2ncc(C3CN(c4nc5ccc(CCC6(O)COC6)cc5o4)C3)nc2C(N)=O)cn1 [Example 45, 6-(1-{6-[2-(3-hydroxyoxetan-3-yl)ethyl]-1,3-benzoxazol-2-yl}azetidin-3-yl)-3-[(1-methyl-1H-pyrazol-4-yl)amino]pyrazine-2-carboxamide] |
| 880 nM | 4 nM | 2 nM | Cn1cc(Nc2ncc(C3CN(c4nc5ccc(-c6cnn(CCO)c6)cc5o4)C3)nc2C(N)=O)cn1 [Example 90, 6-(1-{6-[1-(2-hydroxyethyl)-1H-pyrazol-4-yl]-1,3-benzoxazol-2-yl}azetidin-3-yl)-3-[(1-methyl-1H-pyrazol-4-yl)amino]pyrazine-2-carboxamide] |
| 860 nM | 30 nM | 7 nM | Cn1cc(Nc2ncc(C3CN(c4nc5ccc(CO)cc5o4)C3)nc2C(N)=O)cn1 [Example 16, 6-{1-[6-(hydroxymethyl)-1,3-benzoxazol-2-yl]azetidin-3-yl}-3-[(1-methyl-1H-pyrazol-4-yl)amino]pyrazine-2-carboxamide] |
| 260 nM | 6 nM | 1 nM | Cn1cc(Nc2ncc(C3CN(c4nc5ccc(-c6ccc(OCCO)cc6)cc5o4)C3)nc2C(N)=O)cn1 [Example 89, 6-(1-{6-[4-(2-hydroxyethoxy)phenyl]-1,3-benzoxazol-2-yl}azetidin-3-yl)-3-[(1-methyl-1H-pyrazol-4-yl)amino]pyrazine-2-carboxamide] |
| 9 nM | 9 nM | 3 nM | Cn1cc(Nc2ncc(C3CN(c4nc5ccc(C(=O)N6CCOCC6)cc5o4)C3)nc2C(N)=O)cn1 [Example 46, 3-[(1-methyl-1H-pyrazol-4-yl)amino]-6-{1-[6-(morpholine-4-carbonyl)-1,3-benzoxazol-2-yl]azetidin-3-yl}pyrazine-2-carboxamide] |
| 710 nM | 3 nM | < 1 nM | Cn1cc(Nc2ccc(C3CN(c4nc5ccc(Oc6cccnn6)cc5o4)C3)nc2C(N)=O)cn1 [Example 103, 3-[(1-methyl-1H-pyrazol-4-yl)amino]-6-(1-{6-[(pyridazin-3-yl)oxy]-1,3-benzoxazol-2-yl}azetidin-3-yl)pyridine-2-carboxamide] |
| 220 nM | 14 nM | 3 nM | COCCn1cc(Nc2ncc(C3CN(c4nc5ccc(C)cc5o4)C3)nc2C(N)=O)cn1 [Example 55, 3-{[1-(2-methoxyethyl)-1H-pyrazol-4-yl]amino}-6-[1-(6-methyl-1,3-benzoxazol-2-yl)azetidin-3-yl]pyrazine-2-carboxamide] |
| 490 nM | 14 nM | 8 nM | NC(=O)c1nc(C2CN(c3nc4ccccc4o3)C2)cnc1Nc1cn[nH]c1 [Example 14, 6-[1-(1,3-benzoxazol-2-yl)azetidin-3-yl]-3-[(1H-pyrazol-4-yl)amino]pyrazine-2-carboxamide] |
| 53 nM | 5 nM | < 1 nM | Cn1cnc(-c2ccc3nc(N4CC(c5cnc(Nc6cnn(C)c6)c(C(N)=O)n5)C4)oc3c2)c1 [Example 105, 6-{1-[6-(1-methyl-1H-imidazol-4-yl)-1,3-benzoxazol-2-yl]azetidin-3-yl}-3-[(1-methyl-1H-pyrazol-4-yl)amino]pyrazine-2-carboxamide] |
| 1100 nM | 10 nM | 7 nM | Cn1cc(Nc2ncc(C3CN(c4nc5ccc(CC(CO)CO)cc5o4)C3)nc2C(N)=O)cn1 [Example 25, 6-(1-{6-[3-hydroxy-2-(hydroxymethyl)propyl]-1,3-benzoxazol-2-yl}azetidin-3-yl)-3-[(1-methyl-1H-pyrazol-4-yl)amino]pyrazine-2-carboxamide] |
| 240 nM | 2 nM | < 1 nM | CN1CCCC(Oc2ccc3nc(N4CC(c5cnc(Nc6cnn(C)c6)c(C(N)=O)n5)C4)oc3c2)C1=O (stereo not drawn) [Example 76, 6-(1-{6-[(1-methyl-2-oxopiperidin-3-yl)oxy]-1,3-benzoxazol-2-yl}azetidin-3-yl)-3-[(1-methyl-1H-pyrazol-4-yl)amino]pyrazine-2-carboxamide] |
| 5860 nM | 69 nM | 52 nM | Cn1cc(Nc2ncc(C3CN(c4nc5ccc(OCC(C)(C)OP(=O)(O)O)cc5o4)C3)nc2C(N)=O)cn1 [Example 112, 1-{[2-(3-{6-carbamoyl-5-[(1-methyl-1H-pyrazol-4-yl)amino]pyrazin-2-yl}azetidin-1-yl)-1,3-benzoxazol-6-yl]oxy}-2-methylpropan-2-yl dihydrogen phosphate] |
| 1490 nM | 12 nM | 8 nM | CCOC(C)(C)c1ccc2nc(N3CC(c4cnc(Nc5cnn(C)c5)c(C(N)=O)n4)C3)oc2c1 [Example 101, 6-{1-[6-(2-ethoxypropan-2-yl)-1,3-benzoxazol-2-yl]azetidin-3-yl}-3-[(1-methyl-1H-pyrazol-4-yl)amino]pyrazine-2-carboxamide] |
| 64 nM | 2 nM | < 1 nM | Cn1cc(Nc2ncc(C3CN(c4nc5ccc(OCC6CC(O)C6)cc5o4)C3)nc2C(N)=O)cn1 (stereo not drawn) [Example 42, 6-(1-{6-[(3-hydroxycyclobutyl)methoxy]-1,3-benzoxazol-2-yl}azetidin-3-yl)-3-[(1-methyl-1H-pyrazol-4-yl)amino]pyrazine-2-carboxamide] |
| 94 nM | 3 nM | < 1 nM | CCOC(=O)COc1ccc2nc(N3CC(c4cnc(Nc5cnn(C)c5)c(C(N)=O)n4)C3)oc2c1 [Example 26, ethyl {[2-(3-{6-carbamoyl-5-[(1-methyl-1H-pyrazol-4-yl)amino]pyrazin-2-yl}azetidin-1-yl)-1,3-benzoxazol-6-yl]oxy}acetate] |

| Structure (SMILES) | IC50 (TYRO3 (455-end)) | IC50 (human AXL (473-end)) | IC50 (human MER (528-end)) |
| --- | --- | --- | --- |
| Cn1cc(Nc2ccc(C3CN(c4nc5ccc(OCCC(C)(C)O)cc5o4)C3)nc2C(N)=O)cn1 [Example 84, 6-{1-[6-(3-hydroxy-3-methylbutoxy)-1,3-benzoxazol-2-yl]azetidin-3-yl}-3-[(1-methyl-1H-pyrazol-4-yl)amino]pyridine-2-carboxamide] | 1370 nM | 7 nM | 2 nM |
| CC(C)(O)CCOc1ccc2nc(N3CC(c4cnc(Nc5cnn(COCC[Si](C)(C)C)c5)c(C(N)=O)n4)C3)oc2c1 [Example 96A, 6-{1-[6-(3-hydroxy-3-methylbutoxy)-1,3-benzoxazol-2-yl]azetidin-3-yl}-3-[(1-{[2-(trimethylsilyl)ethoxy]methyl}-1H-pyrazol-4-yl)amino]pyrazine-2-carboxamide] | 1390 nM | 31 nM | 11 nM |
